In PubChem BioAssay AID179 (DTP/NCI, 2004):
Calls of active or inactive are those of the source.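 Rule for the calls: active = compounds giving half or more protection of infected cells from virus-caused growth loss, again on retest; inactive = the rest.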

System: CEM cells HIV-1 protection, formazan growth assay
Experiment: NCI AIDS Antiviral Assay
Conditions: for IC50: measured here: growth of uninfected CEM cells
How it was run: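 Protection of CEM cells against HIV-1 was scored from cell growth (soluble formazan) across five concentrations, with parallel uninfected cells. Lack of protection may reflect toxicity.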

| SMILES | outcome | EC50 [µM] | IC50 [µM] |
| --- | --- | --- | --- |
| O=C(C=Nc1ccccc1S)c1ccco1 | inactive | – | – |
| CSc1nc2[nH]c(=O)n(OS(=O)(=O)c3ccccc3)c(=O)c2n1C | – | > 200 | 115 |
| O=C1C=CC(=O)c2nc3c(cc21)CCC3 | – | > 91.2 | 10.5 |
| COc1ccc(C2CCC(Cl)(OC)CC2C=O)cc1 (configuration not stated) | – | > 245 | 155 |
| O=C(CCN1CCCCC1)Nc1ccc2c(c1)C(=O)c1ccc(NC(=O)CCN3CCCCC3)cc1C2=O | – | > 200 | 1.86 |
| O=C1/C(=C/c2ccc([N+](=O)[O-])cc2)CNC/C1=C\c1ccc([N+](=O)[O-])cc1 | – | > 2 | 0.363 |
| O=Cc1cn(S(=O)(=O)c2ccccc2)c2ccccc12 | inactive | – | – |
| O=C(c1ccc(Cl)cc1)N(C(=S)N1CCN(c2ccccn2)CC1)c1ccccc1 | – | > 30.9 | > 30.9 |
| COc1ccc(/C=C/C(=O)OC/C=C/c2ccc3c(c2)OCO3)cc1OC | – | > 200 | 102 |
| CSc1ccc(NC(=O)Nc2cccc(C)n2)cc1 | – | > 200 | > 200 |
| CC1=NC(C)(CO)CO1 (configuration not stated) | – | > 200 | > 200 |
| c1ccc2c3c([nH]c2c1)C1(CCCCC1)c1c([nH]c2ccccc12)C31CCCCC1 | – | > 6.92 | > 6.92 |
| CSc1nc(Br)nc2ncn(C3CC(Oc4ccc(C)cc4)C(COc4ccc(C)cc4)O3)c12 (configuration not stated) | – | > 200 | 44.7 |
| O=[N+]([O-])c1cc(-c2ccc([As](=O)(O)O)cc2)ccc1[As](=O)(O)O | – | > 200 | > 200 |
| CCOc1ccc(N=O)c(O)c1 | – | > 200 | 3.98 |
| COc1cccc2c1C(=O)c1c(O)c3c(c(O)c1C2=O)CC1(O)CC3OC1(C)OC (configuration not stated) | – | > 4.57 | > 4.57 |
| Cc1ccc(S(=O)(=O)C(CC(=O)N2CCCC2)C(=O)c2ccccc2)cc1 (configuration not stated) | – | > 93.3 | 15.5 |
| CCSSC12CCCN1C(=O)C1CCCN1C2=O (configuration not stated) | – | > 200 | 15.8 |
| Oc1cc(O)cc(/C=C/c2ccc(O)c(O)c2)c1 | inactive | – | – |
| Cc1ccc(S(=O)(=O)N/N=c2\c(C)c(C3=NS(=O)(=O)c4cc(S(N)(=O)=O)c(Cl)cc4N3)oc3c(Cl)cc(Cl)cc23)cc1 | – | > 69.2 | > 69.2 |
| ClC1=NN=C(c2c[nH]c3ccccc23)CC1NCc1ccccc1 (configuration not stated) | – | > 200 | > 200 |
| CSc1n[nH]c2c1c(C)nn2-c1ccccc1 | – | > 200 | 95.5 |

| SMILES | outcome | EC50 [µM] | IC50 [µM] |
| --- | --- | --- | --- |
| COCC1OC2(CCC[C@H]2O)O[C@H]1COC (some centres not stated) | inactive | – | – |
| CC(=C\c1ccccc1)/C=C1\C(=O)NC(=S)N1C=C1C(=O)NC(=O)NC1=O | – | > 200 | > 200 |
| CCOC(=O)c1sc(SC)nc1N | – | > 200 | > 200 |
| NC1CCC[C@@H](O)[C@H]1O (some centres not stated) | – | > 200 | > 200 |
| COC(=O)CNS(=O)(=O)c1ccc(-c2c3nc(c(-c4ccc(S(=O)(=O)NCC(=O)OC)cc4)c4ccc([nH]4)c(-c4ccc(S(=O)(=O)NCC(=O)OC)cc4)c4nc(c(-c5ccc(S(=O)(=O)NCC(=O)OC)cc5)c5ccc2[nH]5)C=C4)C=C3)cc1 | – | > 100 | > 100 |
| Cc1cn(CCOCCOC(=O)NC(CCCNC(N)=O)C(=O)O)c(=O)[nH]c1=O (configuration not stated) | – | > 200 | > 200 |
| CCC(C)(O)c1cn(-c2ccc(S(=O)(=O)O)cc2)nn1 (configuration not stated) | – | > 417 | > 417 |
| N#C/C(C(=S)NCc1ccccc1)=C1/Nc2ccccc2O1 | – | > 200 | 33.1 |
| CN1CCC2(CC1)SSC1(CCN(C)CC1)S2 | – | > 200 | 191 |
| COc1ccc(-c2c(N)cnc(C(=O)O)c2C)c(O)c1OC | inactive | – | – |
| COC1[C@@H](OC(C)=O)[C@@H](NC(=O)C(Cl)(Cl)Cl)C(I)[C@@H](N2C(=O)c3ccccc3C2=O)[C@H]1OC (some centres not stated) | – | > 200 | – |
| CC[C@]1(c2ccc3c(c2)OCO3)C=[N+]([O-])O[C@H](OC2CCCC2(c2ccccc2)c2ccccc2)[C@@H]1OC(C)=O (some centres not stated) | – | > 200 | 4.07 |
| COc1ccc(NC(=O)CC(=O)N/N=C/c2ccc(N(CCC#N)S(=O)(=O)c3ccccc3)cc2)cc1 | – | > 251 | > 251 |
| C#CC1(O)CCC2C3CCc4cc(Oc5nc(F)nc(-c6c7ccccc7c7n6CCS7)n5)ccc4C3CC[C@@]21C (some centres not stated) | – | > 200 | 11.2 |
| N#CC(/C(CCCC(=O)Nc1cccc([N+](=O)[O-])c1)=N/NC(=O)c1cc2ccccc2cc1O)c1ccccc1 (configuration not stated) | – | > 35.5 | 15.5 |
| CCC(=O)NC(C(=O)NC(C(=O)NC(CC(C)C)C(O)CC(=O)NC(C)C(=O)NC(CC(C)C)C(O)CC(=O)O)C(C)C)C(C)C (configuration not stated) | – | > 7.59 | > 7.59 |
| Cc1sccc1C(=S)Nc1ccc(Cl)c(/C=N/OC(C)(C)C)c1 | – | 14.1 | 14.8 |
| CCOC(=O)C1C(=S)NC(=O)C1C#N (configuration not stated) | inactive | – | – |
| COc1ccc(C2CC(c3ccccc3)=Nc3ccccc3S2)cc1 (configuration not stated) | – | > 51.3 | 27.5 |
| OC[C@@H]1CC#C/C=C\C#CC[C@@H]1CO | inactive | – | – |
| C=CCCC(O)c1cc(C)c(O)c(C)c1 (configuration not stated) | – | > 457 | 229 |
| Cc1cn(C2CCC(CO)(C(F)(F)F)O2)c(=O)[nH]c1=O (configuration not stated) | – | > 200 | > 200 |

| SMILES | outcome | EC50 [µM] | IC50 [µM] |
| --- | --- | --- | --- |
| Cc1ccc2[c](c1)[Sn]([c]1ccccc1)([c]1ccccc1)[c]1cc(C)ccc1N2C | – | > 26.3 | 10.2 |
| O=[N+]([O-])c1cc(C2ON=C(c3ccccc3)N2C23CC4CC(CC(C4)C2)C3)ccc1Cl (configuration not stated) | – | > 200 | 81.3 |
| NCCCN1CCN(CCCNc2ccc3ncn4c5ccccc5c(=O)c2c34)CC1 | – | > 25.1 | 1.2 |
| COc1cc(C(=O)N/N=C/N(C)C)cc(OC)c1OC | – | > 200 | > 200 |
| CC(C)(Oc1ccc2c(=O)cc(-c3ccc(Cl)cc3)oc2c1)C(=O)Nc1c(Cl)cccc1Cl | – | > 10.2 | > 10.2 |
| C=C1C2CCC3C(CCC4C35CCC[C@]4(C)CN3CCO[C@H]35)(C2)[C@@H]1O (some centres not stated) | inactive | – | – |
| O=C1OC(c2ccccc2)=N/C1=C\c1ccc(Cl)cc1Cl | – | > 200 | 97.7 |
| CCN1CCCC(C#N)(c2ccccc2)CC1 (configuration not stated) | – | > 933 | 501 |
| NC(=O)C1N=NSC1NC(=O)c1ccc([N+](=O)[O-])cc1 (configuration not stated) | – | > 200 | 26.9 |
| Cc1ccc(S(=O)(=O)Oc2coc(CO)cc2=O)cc1 | – | > 200 | 12.3 |
| Cc1cc2c(C)cc3c(c2oc1=O)[C@@H](OC(=O)C12CCC(C)(C(=O)O1)C2(C)C)[C@@H](OC(=O)C12CCC(C)(C(=O)O1)C2(C)C)C(C)(C)O3 (some centres not stated) | – | 0.692 | 6.92 |
| C[N+]12CCC(c3ccccc3)(CC1)C(O)C2 (configuration not stated) | – | > 832 | 741 |
| O=c1cc(N=P(c2ccccc2)(c2ccccc2)c2ccccc2)n(-c2ccccc2)c(=O)n1-c1ccccc1 | inactive | – | – |
| CCCCCCCCCCCC(=O)NCc1ccc(OC(=O)CCCCCCCCCCC)c(OC)c1 | – | > 200 | 40.7 |
| C=C1C(=O)[C@]23C[C@H]1CC(O)[C@H]2C1(CCC[C@@](C)(COC(C)=O)C1C=O)COC3=O (some centres not stated) | inactive | – | – |
| NC1=NS(=O)(=O)Nc2nonc21 | – | > 1320 | > 1320 |
| Cc1cc2n([O-])cccc-2[n+](=O)c1 | – | > 200 | > 200 |
| C=C(C)C1CC[C@]2(C(=O)O)CCC3(C)[C@H](CCC4[C@@]5(C)CC[C@H](OC6OC(CO)C(O)C6OC6OC(C)C(O)C(O)C6O)[C@@](C)(CO)C5CC[C@]43C)C12 (some centres not stated) | inactive | – | – |
| O=S(=O)(c1ccccc1)N1C2CCCC21 (configuration not stated) | inactive | – | – |
| O=C(Nc1ccc([N+](=O)[O-])cc1)N(c1ccccc1)c1cc(N2CCOCC2)ccn1 | – | > 200 | 39.8 |
| CC1CC[C@@H](C(C)C)[C@H](Oc2nnc(C3OC(CO)C(O)C3O)o2)C1 (some centres not stated) | – | > 200 | > 200 |
| CC1=NN2C(c3ccc(C)cc3)=CSC2=NC(C)(C)C1 | – | > 174 | 141 |

| SMILES | outcome | EC50 [µM] | IC50 [µM] |
| --- | --- | --- | --- |
| O=C1Sc2cc([N+](=O)[O-])ccc2C(=O)N2CSCC12 (configuration not stated) | – | > 50.1 | > 50.1 |
| CC1CCN(C2=CC(=O)C(=O)c3cccnc32)CC1 | inactive | – | – |
| COc1ccc(C2c3[nH]c4ccccc4c3CCN2O)cc1 (configuration not stated) | inactive | – | – |
| CC(=O)Nc1ccc(N2C(=O)/C(=C\c3cccc(Oc4ccccc4)c3)S(=O)(=O)C2c2ccccc2)cc1 (configuration not stated) | – | > 200 | 26.9 |
| Cc1c2c(C#N)nccc2c(C)c2c1c1ccccc1n2Cc1ccccc1 | inactive | – | – |
| O=c1ccc2c(O)c3ccoc3cc2o1 | – | > 110 | 93.3 |
| C=CCCCC(C(=O)OCC)C(=O)OCC | inactive | – | – |
| CNS(=O)(=O)NNS(=O)(=O)c1cccc([N+](=O)[O-])c1 | – | > 83.2 | > 83.2 |
| CCCN=C(NC(=O)c1ccc(Cl)cc1)SC | – | > 200 | > 200 |
| O=C1N(CCO)C2=CCCCC23c2[nH]c4ccccc4c2CCN13 (configuration not stated) | – | > 200 | > 100 |
| CC1(C)O[C@@H](C[C@]2(C#N)C[C@H](CCl)OC(C)(C)O2)C[C@@H](C#N)O1 | inactive | – | > 200 |
| CN(C)CCNc1ccc(CO)c2oc3ccc(O)cc3c(=O)c12 | – | > 398 | 1.15 |
| c1ccc(SSc2ccc3ccccc3c2)cc1 | – | > 200 | 9.33 |
| CC(=O)C(N=Nc1nccs1)C(C)=O | – | > 200 | 55 |
| Cc1ccc(-c2c(C#N)c(-c3ccccc3)c(C#N)c(=O)n2NS(=O)(=O)c2ccc(C)cc2)cc1 | – | > 200 | 57.5 |
| CC[n+]1c([S-])nn(C)c1-c1cnccn1 | – | > 200 | > 200 |
| COC(=O)c1onc(C2OC(C)(C)OC2C(O)COC(c2ccccc2)(c2ccccc2)c2ccccc2)c1C(=O)OC (configuration not stated) | – | > 200 | 15.1 |
| CN1c2ccccc2NP1(=S)Oc1ccccc1 (configuration not stated) | – | > 93.3 | > 93.3 |
| O=C(O)c1ccc(CS(=O)(=O)c2ccc(Cl)cc2)c([N+](=O)[O-])c1 | – | > 708 | 324 |
| O=Cc1ccccc1OCCOc1cc(OCCOc2ccccc2C=O)c(OCCOc2ccccc2C=O)cc1OCCOc1ccccc1C=O | – | > 1.41 | > 1.41 |
| O=c1[nH]c(=O)n(C2COC(CO)C2O)cc1F (configuration not stated) | – | > 200 | 6.03 |
